Key:
Type in all cases: in vivo
[1] = test system: soybean (Glycine max); assay: Test E pre-/postemergence: soybean; conditions: scale 0 to 100
Source text: (§1) Seeds of plant species selected from corn (Zea mays), soybean (Glycine max), velvetleaf (Abutilon theophrasti), lambsquarters (Chenopodium album), poinsettia, wild (wild poinsettia, Euphorbia heterophylla), pigweed, palmer (palmer pigweed, Amaranthus palmeri), waterhemp (common waterhemp, Amaranthus rudis), smartweed (ladysthumb smartweed, Polygonum persicaria), surinam grass (Brachiaria decumbens), crabgrass, large (large crabgrass, Digitaria sanguinalis), crabgrass, Brazil (Brazilian crabgrass, Digitaria horizontalis), panicum, fall (fall panicum, Panicum dichotomiflorum), foxtail, giant (giant foxtail, Setaria faberii), foxtail, green (green foxtail, Setaria viridis), goosegrass (Eleusine indica), johnsongrass (Sorghum halepense), ragweed (common ragweed, Ambrosia elation), barnyardgrass (Echinochloa crus-galli), sandbur (southern sandbur, Cenchrus echinatus), arrowleaf sida (Sida rhombifolia), ryegrass, Italian (Italian ryegrass, Lolium multiflorum), dayflower, (VA) (Virginia dayflower, Commelina virginica), field bindweed (Convolvulus arvensis), cocklebur (common cocklebur, Xanthium strumarium), morningglory (Ipomoea coccinea), nightshade (eastern black nightshade, Solanum ptycanthum), kochia (Kochia scoparia), nutsedge, yellow (yellow nutsedge, Cyperus esculentus) and beggarticks (hairy beggarticks, Bidens pilosa) were planted into a silt loam soil and treated preemergence with test chemicals formulated in a non-phytotoxic solvent mixture which included a surfactant. At the same time, plants selected from these crop and weed species were planted in pots containing a growing medium comprising spaghnum peat moss, vermiculite, wetting agent and starter nutrients and treated with postemergence applications of some of the test chemicals formulated in the same manner. Plants ranged in height from 2 to 18 cm for postemergence treatments (1- to 4-leaf stage).
(§2) Treated plants and controls were maintained in a greenhouse for 14 to 21 days, after which time all species were compared to controls and visually evaluated. Plant response ratings, summarized in Table E, are based on a scale of 0 to 100 where 0 is no effect and 100 is complete control. A dash (-) response means no test result.

[2] = test system: barnyardgrass (Echinochloa crus-galli); assay: Test E pre-/postemergence: barnyardgrass; conditions: scale 0 to 100
Source text: as §1, §2

[3] = test system: arrowleaf sida (Sida rhombifolia); assay: Test E pre-/postemergence: arrowleaf sida; conditions: scale 0 to 100
Source text: as §1, §2

[4] = test system: velvetleaf (Abutilon theophrasti); assay: Test F pre-/postemergence: velvetleaf; conditions: Preemergence
Source text: (§3) Seeds of plant species selected from corn (Zea mays), soybean (Glycine max), velvetleaf (Abutilon theophrasti), lambsquarters (Chenopodium album), poinsettia, wild (wild poinsettia, Euphorbia heterophylla), pigweed, palmer (palmer pigweed, Amaranthus palmeri), waterhemp (common waterhemp, Amaranthus rudis), surinam grass (Brachiaria decumbens), crabgrass, Brazil (Brazilian crabgrass, Digitaria horizontalis), panicum, fall (fall panicum Panicum dichotomiflorum), crabgrass, large (large crabgrass, Digitaria sanguinalis), foxtail, giant (giant foxtail, Setaria faberii), foxtail, green (green foxtail Setaria viridis), goosegrass (Eleusine indica), ragweed (common ragweed, Ambrosia elatior), barnyardgrass (Echinochloa crus-galli), sandbur (southern sandbur, Cenchrus echinatus), arrowleaf sida (Sida rhombifolia), ryegrass, Italian (Italian ryegrass, Lolium multiflorum), dayflower, VA (Virginia (VA) dayflower, Commelina virginica), field bindweed (Convolvulus arvensis), cocklebur (common cocklebur, Xanthium strumarium), morningglory (Ipomoea coccinea), nightshade (eastern black nightshade, Solanum ptycanthum), kochia (Kochia scoparia), nutsedge, yellow (yellow nutsedge, Cyperus esculentus), johnsongrass (Sorghum halepense), smartweed (ladysthumb smartweed, Polygonum persicaria), and beggarticks (hairy beggarticks, Bidens pilosa), were planted into a silt loam soil and treated preemergence with test chemicals formulated in a non-phytotoxic solvent mixture which included a surfactant. At the same time, plants selected from these crop and weed species and also pigweed (Amaranthus retroflexus), waterhemp_RES1 (ALS/Triazine resistant common waterhemp, Amaranthus rudis) and waterhemp_RES2 (ALS/HPPD resistant common waterhemp, Amaranthus rudis) were planted in pots containing a planting medium comprising spaghnum peat moss, vermiculite, wetting agent and starter nutrients treated with postemergence applications of some of the test chemicals formulated in the same manner. Plants ranged in height from 2 to 18 cm for postemergence treatments (1- to 4-leaf stage).
as §2

[5] = test system: ragweed (common ragweed, Ambrosia elatior); assay: Test F pre-/postemergence: ragweed; conditions: Preemergence
Source text: as §3, §2

[6] = test system: nutsedge, yellow (yellow nutsedge, Cyperus esculentus); assay: Test F pre-/postemergence: nutsedge, yellow; conditions: Preemergence
Source text: as §3, §2

[7] = test system: Waterhemp; assay: Test C pre-/postemergence: waterhemp
Source text: Seeds of plant species selected from blackgrass (Alopecurus myosuroides), bromegrass, downy (downy bromegrass, Bromus tectorum), foxtail, green (green foxtail, Setaria viridis), ryegrass, Italian (Italian ryegrass, Lolium multiflorum), winter wheat (Triticum aestivum), wild oat (Avena fatua), galium (catchweed bedstraw, Galium aparine), bermudagrass (Cynodon dactylon), surinam grass (Brachiaria decumbens), cocklebur (common cocklebur, Xanthium strumarium), corn (Zea mays), large crabgrass (Digitaria sanguinalis), woolly cupgrass (Eriochloa villosa), foxtail, giant (giant foxtail, Setaria faberii), goosegrass (Eleusine indica), johnsongrass (Sorghum halepense), kochia (Kochia scoparia), lambsquarters (Chenopodium album), morningglory (Ipomoea coccinea), nightshade (eastern black nightshade, Solanum ptycanthum), nutsedge, yellow (yellow nutsedge, Cyperus esculentus), pigweed (Amaranthus retroflexus), ragweed (common ragweed, Ambrosia elation), soybean (Glycine max), common (oilseed) sunflower (Helianthus annuus), Russian thistle (Salsola kali) and velvetleaf (Abutilon theophrasti) were planted into a blend of loam soil and sand and treated preemergence with test chemicals formulated in a non-phytotoxic solvent mixture which included a surfactant.
At the same time, plants selected from these crop and weed species and also barley (winter barley, Hordeum vulgare), canarygrass (Phalaris minor), chickweed (common chickweed, Stellaria media) windgrass (Apera spica-venti) and deadnettle (henbit deadnettle, Lamium amplexicaule) were planted in pots containing Redi-Earth® planting medium (Scotts Company, 14111 Scottslawn Road, Marysville, Ohio 43041) comprising spaghnum peat moss, vermiculite, wetting agent and starter nutrients and treated with postemergence applications of test chemicals formulated in the same manner. Plants ranged in height from 2 to 18 cm (1- to 4-leaf stage) for postemergence treatments.
Treated plants and controls were maintained in a greenhouse for 13 to 15 days, after which time all species were compared to controls and visually evaluated. Plant response ratings, summarized in Table C, are based on a scale of 0 to 100 where 0 is no effect and 100 is complete control. A dash (-) response means no test result.

[8] = 16 g ai/ha, scale 0 to 100 (0 no effect, 100 complete control)
[9] = 31 g ai/ha, scale 0 to 100 (0 no effect, 100 complete control)
[10] = Postemergence, 31 g ai/ha, scale 0 to 100 (0 no effect, 100 complete control)

Cc1nn(-c2ccc(F)cc2)nc1Cc1ccnc(C(F)(F)F)c1 [Compound 16, 4-[[2-(4-fluorophenyl)-5-methyl-2H-1,2,3-triazol-4-yl]methyl]-2-(trifluoromethyl)pyridine]
Plant response rating: Soybean ([1]; Preemergence, 8 g ai/ha): 0
Plant response rating: Soybean ([1]; Preemergence, 16 g ai/ha): 0
Plant response rating: Soybean ([1]; Preemergence, 31 g ai/ha): 0
Plant response rating: Soybean ([1]; Preemergence, 62 g ai/ha): 0
Plant response rating: Soybean ([1]; Preemergence, 125 g ai/ha): 20
Plant response rating: Barnyardgrass ([2]; Preemergence, 8 g ai/ha): 0
Plant response rating: Barnyardgrass ([2]; Preemergence, 16 g ai/ha): 10
Plant response rating: Barnyardgrass ([2]; Preemergence, 31 g ai/ha): 50
Plant response rating: Barnyardgrass ([2]; Preemergence, 62 g ai/ha): 98
Plant response rating: Barnyardgrass ([2]; Preemergence, 125 g ai/ha): 98
Plant response rating: Arrowleaf Sida ([3]; Preemergence, 8 g ai/ha): 0
Plant response rating: Arrowleaf Sida ([3]; Preemergence, 16 g ai/ha): 0
Plant response rating: Arrowleaf Sida ([3]; Preemergence, 31 g ai/ha): 0
Plant response rating: Arrowleaf Sida ([3]; Preemergence, 62 g ai/ha): 0
Plant response rating: Arrowleaf Sida ([3]; Preemergence, 125 g ai/ha): 35

Cc1nn(-c2ccc(C(F)(F)F)cc2)nc1Cc1ccnc(C(F)(F)F)c1 [Compound 47, 4-[[5-methyl-2-[4-(trifluoromethyl)phenyl]-2H-1,2,3-triazol-4-yl]methyl]-2-(trifluoromethyl)pyridine]
Plant response rating: Soybean ([1]; Postemergence, 250 g ai/ha): 75
Plant response rating: Soybean ([1]; Postemergence, 16 g ai/ha): 50
Plant response rating: Soybean ([1]; Postemergence, 31 g ai/ha): 50
Plant response rating: Soybean ([1]; Postemergence, 62 g ai/ha): 60
Plant response rating: Soybean ([1]; Postemergence, 125 g ai/ha): 60
Plant response rating: Soybean ([1]; Preemergence, 16 g ai/ha): 0
Plant response rating: Soybean ([1]; Preemergence, 31 g ai/ha): 40
Plant response rating: Soybean ([1]; Preemergence, 62 g ai/ha): 40
Plant response rating: Soybean ([1]; Preemergence, 125 g ai/ha): 40
Plant response rating: Soybean ([1]; Preemergence, 250 g ai/ha): 40
Plant response rating: Barnyardgrass ([2]; Postemergence, 250 g ai/ha): 60
Plant response rating: Barnyardgrass ([2]; Postemergence, 16 g ai/ha): 30
Plant response rating: Barnyardgrass ([2]; Postemergence, 31 g ai/ha): 30
Plant response rating: Barnyardgrass ([2]; Postemergence, 62 g ai/ha): 40
Plant response rating: Barnyardgrass ([2]; Postemergence, 125 g ai/ha): 45
Plant response rating: Barnyardgrass ([2]; Preemergence, 16 g ai/ha): 5
Plant response rating: Barnyardgrass ([2]; Preemergence, 31 g ai/ha): 30
Plant response rating: Barnyardgrass ([2]; Preemergence, 62 g ai/ha): 85
Plant response rating: Barnyardgrass ([2]; Preemergence, 125 g ai/ha): 100
Plant response rating: Barnyardgrass ([2]; Preemergence, 250 g ai/ha): 100
Plant response rating: Arrowleaf Sida ([3]; Postemergence, 250 g ai/ha): 85
Plant response rating: Arrowleaf Sida ([3]; Postemergence, 16 g ai/ha): 50
Plant response rating: Arrowleaf Sida ([3]; Postemergence, 31 g ai/ha): 60
Plant response rating: Arrowleaf Sida ([3]; Postemergence, 62 g ai/ha): 70
Plant response rating: Arrowleaf Sida ([3]; Postemergence, 125 g ai/ha): 80
Plant response rating: Arrowleaf Sida ([3]; Preemergence, 16 g ai/ha): 0
Plant response rating: Arrowleaf Sida ([3]; Preemergence, 31 g ai/ha): 20
Plant response rating: Arrowleaf Sida ([3]; Preemergence, 62 g ai/ha): 40
Plant response rating: Arrowleaf Sida ([3]; Preemergence, 125 g ai/ha): 60
Plant response rating: Arrowleaf Sida ([3]; Preemergence, 250 g ai/ha): 95

Cc1nn(-c2ccc(F)cc2)nc1Oc1ccnc(C(F)(F)F)c1 [Compound 129, 4-[[2-(4-fluorophenyl)-5-methyl-2H-1,2,3-triazol-4-yl]oxy]-2-(trifluoromethyl)pyridine]
Plant response rating: Soybean ([1]; Preemergence, 8 g ai/ha): 0
Plant response rating: Soybean ([1]; Preemergence, 16 g ai/ha): 15
Plant response rating: Soybean ([1]; Preemergence, 31 g ai/ha): 15
Plant response rating: Soybean ([1]; Preemergence, 62 g ai/ha): 20
Plant response rating: Soybean ([1]; Preemergence, 125 g ai/ha): 25
Plant response rating: Barnyardgrass ([2]; Preemergence, 8 g ai/ha): 0
Plant response rating: Barnyardgrass ([2]; Preemergence, 16 g ai/ha): 0
Plant response rating: Barnyardgrass ([2]; Preemergence, 31 g ai/ha): 5
Plant response rating: Barnyardgrass ([2]; Preemergence, 62 g ai/ha): 10
Plant response rating: Barnyardgrass ([2]; Preemergence, 125 g ai/ha): 35
Plant response rating: Arrowleaf Sida ([3]; Preemergence, 8 g ai/ha): 0
Plant response rating: Arrowleaf Sida ([3]; Preemergence, 16 g ai/ha): 0
Plant response rating: Arrowleaf Sida ([3]; Preemergence, 31 g ai/ha): 0
Plant response rating: Arrowleaf Sida ([3]; Preemergence, 62 g ai/ha): 30
Plant response rating: Arrowleaf Sida ([3]; Preemergence, 125 g ai/ha): 30

Fc1ccc(-n2nc(Cc3ccnc(C(F)(F)F)c3)c(OCC(F)(F)F)n2)cc1 [Compound 142]
Plant response rating, Velvetleaf [4, 8]: 0
Plant response rating, Velvetleaf [4, 9]: 0
Plant response rating, Velvetleaf ([4]; 125 g ai/ha, scale 0 to 100): 75
Plant response rating, Ragweed [5, 8]: 0
Plant response rating, Ragweed [5, 9]: 0
Plant response rating, Ragweed ([5]; 125 g ai/ha, scale 0 to 100): 40
Plant response rating, Nutsedge, Yellow [6, 8]: 0
Plant response rating, Nutsedge, Yellow [6, 9]: 0
Plant response rating, Nutsedge, Yellow ([6]; 125 g ai/ha, scale 0 to 100): 0

CCCc1nn(-c2ccc(F)cc2)nc1Cc1ccnc(C(F)(F)F)c1 [Compound 153]
Plant response rating, Velvetleaf [4, 8]: 20
Plant response rating, Velvetleaf [4, 9]: 50
Plant response rating, Velvetleaf ([4]; 125 g ai/ha, scale 0 to 100): 98
Plant response rating, Velvetleaf ([4]; 250 g ai/ha, scale 0 to 100): 100
Plant response rating, Ragweed [5, 8]: 5
Plant response rating, Ragweed [5, 9]: 5
Plant response rating, Ragweed ([5]; 125 g ai/ha, scale 0 to 100): 20
Plant response rating, Ragweed ([5]; 250 g ai/ha, scale 0 to 100): 80
Plant response rating, Nutsedge, Yellow [6, 8]: 0
Plant response rating, Nutsedge, Yellow [6, 9]: 0
Plant response rating, Nutsedge, Yellow ([6]; 125 g ai/ha, scale 0 to 100): 10
Plant response rating, Nutsedge, Yellow ([6]; 250 g ai/ha, scale 0 to 100): 10
Plant response rating, Waterhemp ([7]; Preemergence, 250 g ai/ha, scale 0 to 100, 0 no effect, 100 complete control): 100

CCc1nn(-c2ccc(F)cc2)nc1Oc1ccnc(C(F)(F)F)c1 [Compound 166]
Plant response rating, Waterhemp [7, 10]: 90

CCCc1nn(-c2ccc(C(F)(F)F)c(F)c2)nc1Oc1ccnc(C(F)(F)F)c1 [Compound 185]
Plant response rating, Waterhemp [7, 10]: 90
